Measurements as given in patent publication US20110021532A1, “NOVEL SUBSTITUTED HETEROAROMATIC COMPOUNDS AS INHIBITORS OF STEAROYL-COENZYME A DELTA-9 DESATURASE” (Merck Frosst Canada Ltd., priority 2008, published 2011).

target: T1, human SCD1 (hSCD-1) (Homo sapiens, UniProt O00767); assay: SCD enzyme activity assay, reconstituted human SCD1 (hSCD-1); type: biochemical; conditions: human SCD1, conversion of [3H]-stearoyl-CoA
T1 construct: made in house; host or cells: baculovirus/Sf9
T1 sequence (O00767 1-359): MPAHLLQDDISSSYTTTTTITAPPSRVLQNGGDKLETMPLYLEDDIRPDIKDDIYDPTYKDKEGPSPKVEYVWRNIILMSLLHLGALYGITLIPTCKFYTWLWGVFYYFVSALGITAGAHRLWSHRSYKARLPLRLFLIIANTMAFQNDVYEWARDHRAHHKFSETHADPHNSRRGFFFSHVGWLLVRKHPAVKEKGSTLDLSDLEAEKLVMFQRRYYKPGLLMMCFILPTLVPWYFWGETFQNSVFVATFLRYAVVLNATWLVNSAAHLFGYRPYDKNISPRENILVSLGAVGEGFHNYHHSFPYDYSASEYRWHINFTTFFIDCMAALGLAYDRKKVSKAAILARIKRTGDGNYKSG
Description: The potency of compounds of formula I against the stearoyl-CoA desaturase was determined by measuring the conversion of radiolabeled stearoyl-CoA to oleoyl-CoA using rat liver microsome or human SCD1 (hSCD-1) following previously published procedures with some modifications (Joshi, et al., J. Lipid Res., 18: 32-36 (1977); Talmo, et al., Anal. Biochem, 29: 300-304 (1969)). Liver microsome was prepared from male Wistar or Sprague Dawley rats on a high carbohydrate diet for 3 days (LabDiet #5803, Purina). The livers were homogenized (1:10 w/v) in a buffer containing 250 mM sucrose, 1 mM EDTA, 5 mM DTT and 50 mM Tris-HCl (pH 7.5). After a 100,000×g centrifugation for 60 min, the liver microsome pellet was suspended in a buffer containing 100 mM sodium phosphate, 20% glycerol, 2 mM DTT, and stored at −78° C. Human SCD1 desaturase system was reconstituted using human SCD1 from a baculovirus/Sf9 expression system, cytochrome B5 and cytochrome B5 reductase. Typically, test compound in 2 μL DMSO was incubated for 15 min at room temperature with 180 μL of the SCD enzyme in a buffer containing 100 mM Tris-HCl (pH 7.5), ATP (5 mM), Coenzyme-A (0.1 mM), Triton X-100 (0.5 mM) and NADH (2 mM). The reaction was initiated by the addition of 20 μL of [^3H]-stearoyl-CoA (final concentration=2 μM, radioactivity concentration=1 μCi/mL). After 10 min, the reaction mixture (80 μL) was mixed with a calcium chloride/charcoal aqueous suspension (100 μL charcoal (10% w/v) plus 25 μL CaCl2 (2N). After centrifugation to precipitate the radioactive fatty acid species, tritiated water released from 9,10-[^3H]-stearoyl-CoA by the SCD enzyme was quantified on a scintillation counter.

Row | Structure (SMILES) | IC50 [nM]
1 | CS(=O)(=O)c1ccc2nc(-c3ccc(-c4ccccc4F)nc3)[nH]c2c1 | 27
2 | CS(=O)(=O)c1cnc2[nH]c(-c3ccc(-c4ccccc4F)cc3)nc2c1 | 113

The remaining molecules from weak to strong by IC50, led by results:

Row | IC50 [nM] | Structure (SMILES)
3 | 231 | CS(=O)(=O)c1ccc2[nH]c(-c3ccc(-c4cccs4)cc3)nc2c1
4 | 26 | CS(=O)(=O)c1ccc2nc(-c3ccc(-c4cccc(F)c4)cc3)[nH]c2c1
5 | 13 | CS(=O)(=O)c1ccn2cc(-c3ccc(-c4cccc(Cl)c4)cc3)nc2c1
